Experimental findings from patent US10206908B2, “3-(1H-pyrrolo[3,2-C]pyridin-2-YL)-1H-pyrazolo[3,4-C]pyridines and therapeutic uses thereof” (Samumed, LLC, priority 2015, dated 2019) are described below.

By pEC50 is commonly meant the negative decadic logarithm of the EC50, by convention in mol/L. Read a low pEC50 as a high EC50. One may read the inhibition as the relative decrease from the control value, in per cent.

What all share (format): cell-based
For test [1], the system named is IL-6 (THP-1 cells). Kind of test: IL-6 inhibition in LPS-stimulated THP-1 monocytes (HTRF). Conditions: Homo sapiens; for pEC50: IL-6, THP-1 cells, LPS 500 ng/mL, 22 hours; for inhibition at 10 µM: THP-1, read-out: percent inhibition at 10 μM. The procedure: Compound Screening: THP-1 cells were cultured in basal media with 1% FBS for 24 hours before the start of the assay. […] THP-1 cells were plated at 5000 cells/well in the 384-well plates and incubated at 37° C. for 2 h. 500 ng/mL of LPS was added after 2 hours and cells were incubated for another 22 hours at 37° C. Plates were spun in a centrifuge for 1 minute at […] and a mixture of anti-IL6 XL665, and anti-IL6 Cryptate diluted in reconstitution buffer (Cisbio Inc.) was added to each well. Following incubation for 3 hrs at room temperature, Homogeneous Time-Resolved Fluorescence (HTRF) was measured using the Envision (Perkin Elmer) at 665 nm and […]. The ratio of fluorescence at 665 nm to 620 nm was used as a readout for IL6 quantification. All samples were processed in duplicate. Readings were normalized to DMSO treated cells and normalized activities were utilized for EC50 calculations using the dose-response log (inhibitor) vs. response-variable slope (four parameters) nonlinear regression feature available in GraphPad Prism 5.0 (or Dotmatics).
A general note: TR-FRET usually uses a lanthanide donor and a delayed reading to cut background.

In test [2] the test system is SW480 colon cancer cells. Kind of test: Cell viability assay (CellTiter-Blue) in SW480 colon cancer cells. The conditions noted are these: Homo sapiens; for pEC50: 96 h, SW480 cell viability, four days; for inhibition at 10 µM: SW480, read-out: percent inhibition at 10 μM. Here is the method: Representative compounds were screened using the following assay procedure to assess the effect on cell viability as described below.
Approximately 2×10^3 SW480 colon cancer cells were seeded into each well and allowed to incubate in the presence or absence of compound for four days at 37° C./5% CO2. Eight replicates of DMSO-treated cells served as controls and cells treated with compound were performed in duplicate.
After incubation, 20 μL of CellTiter-Blue (Promega) was added to each well allowed to incubate for approximately 3 hours. This reagent was a buffered solution which contains resazurin, metabolically active cells were able to reduce rezarurin (blue) into resorufin (pink) which was highly fluorescent. This measured fluorescence was used as a readout for cell viability.

The subject of test [3] is Wnt activity (Sp5-Luc reporter, SW480 colon carcinoma cells). The test is described as follows: Screening assay for Wnt activity: Sp5-Luc reporter gene assay in SW480 colon carcinoma cells. Conditions: Homo sapiens; for pEC50: Sp5-Luc reporter, SW480 cells, overnight incubation; for inhibition at 10 µM: SW480, read-out: percent inhibition at 10 μM. The text has this: The screening assay for Wnt activity is described as follows. Reporter cell lines can be generated by stably transducing cancer cell lines (e.g., colon cancer) or primary cells (e.g., IEC-6 intestinal cells) with a lentiviral construct that includes a Wnt-responsive promoter driving expression of the firefly luciferase gene.
SW480 colon carcinoma cells were transduced with a lentiviral vector expressing luciferase with a human Sp5 promoter consisting of a sequence of eight TCF/LEF binding sites. SW480 cells stably expressing the Sp5-Luc reporter gene and a hygromycin resistance gene were selected by treatment with 150 μg/mL of hygromycin for 7 days. These stably transduced SW480 cells were expanded in cell culture and used for all further screening activities. […] For Sp5-Luc reporter gene assays, the cells were plated at 4,000 cells/well in 384-well plates with medium containing 1% fetal bovine serum and incubated overnight at 37° C. and 5% CO2. Following incubation, 20 μl of BrightGlo luminescence reagent (Promega) was added to each well of the 384-well assay plates. The plates were placed on an orbital shaker for 2 min and then luminescence was quantified using the Envision (Perkin Elmer) plate reader. Readings were normalized to DMSO only treated cells, and normalized activities were utilized for EC50 calculations using the dose-response log (inhibitor) vs. response-variable slope (four parameters) nonlinear regression feature available in GraphPad Prism 5.0 (or Dotmatics).
(In general: Reporter assays use an easily measured gene product as a stand-in for the process of interest.)

Test [4] concerns primary human fibroblasts derived from IPF patients (LL29 cells) treated with TGF-β1. The test is described as follows: Inhibition of the fibrotic process: αSMA staining in TGF-β1 treated LL29 fibroblasts. Conditions: Fibroblast; for pEC50: 96 h, % αSMA positive LL29 cells, TGF-β1 20 ng/mL, 4 days; for inhibition at 10 µM: read-out: percent inhibition at 10 μM. The procedure:
Representative compounds were screened using primary human fibroblasts (derived from IPF patients) treated with TGF-β1 to determine their ability to inhibit the fibrotic process.
LL29 cells are plated at 1,500 cells/well in 80 μL/well F12 medium supplemented with 1% Fetal Bovine Serum. […] Wells treated with TGF-β1 and containing DMSO were used as controls. […] Following incubation for 4 days, SYTOX green nucleic acid stain (Life Technologies [Thermo Fisher Scientific]) was added to the wells at a final concentration of 1 μM and incubated at room temperature for 30 min.

Molecules are shown by their SMILES. pEC50: −log10 of the molar value.

In the case of `c1cncc(-c2cc3c(-c4cc5c(-c6ccoc6)nccc5[nH]4)n[nH]c3cn2)c1` [Compound 312, 3-(4-(Furan-3-yl)-1H-pyrrolo[3,2-c]pyridin-2-yl)-5-(pyridin-3-yl)-1H-pyrazolo[3,4-c]pyridine], the pEC50 in test [1] was 6.00; in test [2] it was 6.07; in test [3], 5.99; in test [4] it was 6.53.

In the case of `CCCC(=O)Nc1cncc(-c2cc3c(-c4cc5c(-c6ccoc6)nccc5[nH]4)n[nH]c3cn2)c1` [Compound 325, N-(5-(3-(4-(Furan-3-yl)-1H-pyrrolo[3,2-c]pyridin-2-yl)-1H-pyrazolo[3,4-c]pyridin-5-yl)pyridin-3-yl)butyramide], the pEC50 in test [1] is 5.62; in test [2], under 5.00; in test [3] it was 5.96; in test [4], 5.76. Also, in test [2], the inhibition at 10 µM is 31.2%.

In the case of `c1ccc(-c2cc3c(-c4cc5c(-c6cccs6)nccc5[nH]4)n[nH]c3cn2)nc1` [Compound 364, 5-(Pyridin-2-yl)-3-(4-(thiophen-2-yl)-1H-pyrrolo[3,2-c]pyridin-2-yl)-1H-pyrazolo[3,4-c]pyridine], the pEC50 in test [1] is 5.48; in test [2], 5.38; in test [3], 5.39; in test [4], 5.51.

For the compound `CC(C)CC(=O)Nc1cncc(-c2cc3c(-c4cc5c(-c6cc(F)cc(CNS(C)(=O)=O)c6)nccc5[nH]4)n[nH]c3cn2)c1` [Compound 478, N-(5-(3-(4-(3-Fluoro-5-(methylsulfonamidomethyl)phenyl)-1H-pyrrolo[3,2-c]pyridin-2-yl)-1H-pyrazolo[3,4-c]pyridin-5-yl)pyridin-3-yl)-3-methylbutanamide], the inhibition at 10 µM in test [1] was determined as 41.3%; in test [2] it was 6.3%; in test [3] it was 38.7%; in test [4], 29%. The negative logarithm of the EC50 (pEC50) in test [1], in test [2], in test [3] and in test [4] was under 5.00 in each case.

As for `CS(=O)(=O)NCc1cc(F)cc(-c2nccc3[nH]c(-c4n[nH]c5cnc(-c6cncc(CN7CCCC7)c6)cc45)cc23)c1` [Compound 490, N-(3-Fluoro-5-(2-(5-(5-(pyrrolidin-1-ylmethyl)pyridin-3-yl)-1H-pyrazolo[3,4-c]pyridin-3-yl)-1H-pyrrolo[3,2-c]pyridin-4-yl)benzyl)methanesulfonamide], the pEC50 in test [1] was 5.41; in test [2], under 5.00; in test [3] it was under 5.00; in test [4], under 5.00. In addition, the figures for the inhibition at 10 µM in test [2], in test [3] and in test [4] were 5.5%, 28.7% and 0%, respectively.

Turning to `CC(C)(C)CC(=O)Nc1cncc(-c2cc3c(-c4cc5c(-c6cc(F)cc(CNS(C)(=O)=O)c6)nccc5[nH]4)n[nH]c3cn2)c1` [Compound 492, N-(5-(3-(4-(3-Fluoro-5-(methylsulfonamidomethyl)phenyl)-1H-pyrrolo[3,2-c]pyridin-2-yl)-1H-pyrazolo[3,4-c]pyridin-5-yl)pyridin-3-yl)-3,3-dimethylbutanamide], the inhibition at 10 µM was 4.6% in test [1], 8.6% in test [2], 17.3% in test [3] and 1.8% in test [4]. Moreover, the pEC50 in test [1], in test [2], in test [3] and in test [4] was under 5.00 in each case.

As to `CS(=O)(=O)NCc1cc(F)cc(-c2nccc3[nH]c(-c4n[nH]c5cnc(-c6ccccn6)cc45)cc23)c1` [Compound 504, N-(3-Fluoro-5-(2-(5-(pyridin-2-yl)-1H-pyrazolo[3,4-c]pyridin-3-yl)-1H-pyrrolo[3,2-c]pyridin-4-yl)benzyl)methanesulfonamide], the pEC50 in test [1] is 5.67; in test [2], 5.81; in test [3], 5.78; in test [4], 5.47.

As for `Fc1cccc(-c2nccc3[nH]c(-c4n[nH]c5cnc(C6CCNCC6)cc45)cc23)c1` [Compound 505, 3-(4-(3-Fluorophenyl)-1H-pyrrolo[3,2-c]pyridin-2-yl)-5-(piperidin-4-yl)-1H-pyrazolo[3,4-c]pyridine], the inhibition at 10 µM in test [1] is 16.4%; in test [2], 5.2%; in test [3], 28.3%; in test [4], 0%. For the same compound, the pEC50 in test [1], in test [2], in test [3] and in test [4] was under 5.00 each time.

Consider `Cn1cc(-c2cc3c(-c4cc5c(-c6cccnc6)nccc5[nH]4)n[nH]c3cn2)cn1` [Compound 556, 5-(1-Methyl-1H-pyrazol-4-yl)-3-(4-(pyridin-3-yl)-1H-pyrrolo[3,2-c]pyridin-2-yl)-1H-pyrazolo[3,4-c]pyridine], for which the pEC50 was 6.30 in test [1], under 5.00 in test [2], 7.11 in test [3] and 7.16 in test [4]. Moreover, the inhibition at 10 µM in test [2] was found to be 0%.

As to `c1cc2[nH]c(-c3n[nH]c4cnc(-c5cncc(OC6CCCCC6)c5)cc34)cc2c(N2CCCCC2)n1` [Compound 607, 5-(5-(Cyclohexyloxy)pyridin-3-yl)-3-(4-(piperidin-1-yl)-1H-pyrrolo[3,2-c]pyridin-2-yl)-1H-pyrazolo[3,4-c]pyridine], the pEC50 in test [1] was 5.42; in test [2], 5.96; in test [3] it was 5.84; in test [4], 5.94.

`CN1CCN(c2nccc3[nH]c(-c4n[nH]c5cnc(-c6cncc(NC(=O)CC7CCNCC7)c6)cc45)cc23)CC1` [Compound 641, N-(5-(3-(4-(4-Methylpiperazin-1-yl)-1H-pyrrolo[3,2-c]pyridin-2-yl)-1H-pyrazolo[3,4-c]pyridin-5-yl)pyridin-3-yl)-2-(piperidin-4-yl)acetamide]: the inhibition at 10 µM in test [1] stood at 14.4%; in test [2] it was 4.4%; in test [3], 7.9%. Moreover, the pEC50 in test [1] is under 5.00; in test [2] it was under 5.00; in test [3] it was under 5.00; in test [4] it was 5.29.
